Results reported in PubChem BioAssay (NCI).
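Following 48 hours of exposure in 96-well plates, responses at five concentrations were used to interpolate endpoints linearly. Abbreviation: GI50, concentration required for 50% inhibition of growth. TGI denotes the concentration required for complete inhibition of growth.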

Assays:
Assay in all cases: DTP human tumour cell line panel, 48 h
[1] = system: 786-0 renal
[2] = system: A498 renal
[3] = system: A549 NSCLC
[4] = system: ACHN renal
[5] = system: BT-549 breast
[6] = system: CAKI-1 renal
[7] = system: CCRF-CEM leukemia
[8] = system: COLO 205 colon
[9] = system: DU-145 prostate
[10] = system: EKVX NSCLC
[11] = system: HCC-2998 colon
[12] = system: HCT-116 colon
[13] = system: HCT-15 colon
[14] = system: HL-60(TB) leukemia
[15] = system: HOP-62 NSCLC
[16] = system: HOP-92 NSCLC
[17] = system: HS 578T breast
[18] = system: HT29 colon
[19] = system: IGROV1 ovarian
[20] = system: K-562 leukemia
[21] = system: KM12 colon
[22] = system: LOX IMVI melanoma
[23] = system: M14 melanoma
[24] = system: MALME-3M melanoma
[25] = system: MCF7 breast
[26] = system: MDA-MB-231 breast
[27] = system: MDA-MB-435
[28] = system: MDA-MB-468 breast
[29] = system: MOLT-4 leukemia
[30] = system: NCI-H226 lung
[31] = system: NCI-H23 lung
[32] = system: NCI-H460 lung
[33] = system: NCI-H522 lung
[34] = system: OVCAR-3 ovarian
[35] = system: OVCAR-4 ovarian
[36] = system: OVCAR-5 ovarian
[37] = system: OVCAR-8 ovarian
[38] = system: PC-3 prostate
[39] = system: RPMI-8226 leukemia
[40] = system: RXF 393 renal
[41] = system: SF-268 CNS
[42] = system: SF-295 CNS
[43] = system: SF-539 CNS
[44] = system: SK-MEL-2 melanoma
[45] = system: SK-MEL-28 melanoma
[46] = system: SK-MEL-5 melanoma
[47] = system: SK-OV-3 ovarian
[48] = system: SN12C renal
[49] = system: SNB-19 CNS
[50] = system: SNB-75 CNS
[51] = system: SR leukemia
[52] = system: SW-620 colon
[53] = system: T-47D breast
[54] = system: TK-10 renal
[55] = system: U251 CNS
[56] = system: UACC-257 melanoma
[57] = system: UACC-62 melanoma
[58] = system: UO-31 renal

**Q.** How did the GI50 [1] turn out when `O=C(c1ccc(O)cc1)C1[C@H](c2ccccc2Br)[C@@H](c2ccccc2)NC12C(=O)Nc1ccc(Cl)cc12` (stereo partly specified) was run?
**A.** 6.57 µM

**Q.** And the TGI [1]?
**A.** 13.7 µM

**Q.** And the GI50 [2]?
**A.** 6.57 µM

**Q.** What about the TGI [2] of the same compound?
**A.** 13.9 µM

**Q.** And the GI50 [3]?
**A.** 3.43 µM

**Q.** And the TGI [3]?
**A.** 11.2 µM

**Q.** What about the GI50 [4] of the same compound?
**A.** 5.39 µM

**Q.** And the TGI [4]?
**A.** 11.8 µM

**Q.** And the GI50 [5]?
**A.** 2.19 µM

**Q.** What about the TGI [5] of the same compound?
**A.** 9.37 µM

**Q.** What about the GI50 [6] of the same compound?
**A.** 2 µM

**Q.** And the TGI [6]?
**A.** 8.85 µM

**Q.** What about the GI50 [7] of the same compound?
**A.** 3.49 µM

**Q.** And the TGI [7]?
**A.** 16.5 µM

**Q.** And the GI50 [8]?
**A.** 7.35 µM

**Q.** And the TGI [8]?
**A.** 15.7 µM

**Q.** What about the GI50 [9] of the same compound?
**A.** 8.01 µM

**Q.** What about the TGI [9] of the same compound?
**A.** 16.5 µM

**Q.** What about the GI50 [10] of the same compound?
**A.** 6.65 µM

**Q.** What about the TGI [10] of the same compound?
**A.** 15.4 µM

**Q.** What about the GI50 [11] of the same compound?
**A.** 2.42 µM

**Q.** What about the TGI [11] of the same compound?
**A.** 9.01 µM

**Q.** And the GI50 [12]?
**A.** 4.12 µM

**Q.** What about the TGI [12] of the same compound?
**A.** 11.4 µM

**Q.** And the GI50 [13]?
**A.** 6.63 µM

**Q.** And the TGI [13]?
**A.** 16.1 µM

**Q.** And the GI50 [14]?
**A.** 5.86 µM

**Q.** And the TGI [14]?
**A.** 20.3 µM

**Q.** What about the GI50 [15] of the same compound?
**A.** 7.08 µM

**Q.** And the TGI [15]?
**A.** 14.9 µM

**Q.** And the GI50 [16]?
**A.** 3.03 µM

**Q.** And the TGI [16]?
**A.** 11.6 µM

**Q.** And the GI50 [17]?
**A.** 6.2 µM

**Q.** What about the TGI [17] of the same compound?
**A.** 22.6 µM

**Q.** And the GI50 [18]?
**A.** 7.36 µM

**Q.** And the TGI [18]?
**A.** 17.9 µM

**Q.** What about the GI50 [19] of the same compound?
**A.** 2.3 µM

**Q.** And the TGI [19]?
**A.** 9.11 µM

**Q.** And the GI50 [20]?
**A.** 3.75 µM

**Q.** What about the TGI [20] of the same compound?
**A.** 17.9 µM

**Q.** And the GI50 [21]?
**A.** 2.91 µM

**Q.** What about the TGI [21] of the same compound?
**A.** 11.1 µM

**Q.** And the GI50 [22]?
**A.** 5.53 µM

**Q.** And the TGI [22]?
**A.** 13.1 µM

**Q.** What about the GI50 [23] of the same compound?
**A.** 4.77 µM

**Q.** And the TGI [23]?
**A.** 12.4 µM

**Q.** And the GI50 [24]?
**A.** 7.89 µM

**Q.** And the TGI [24]?
**A.** 15.3 µM

**Q.** What about the GI50 [25] of the same compound?
**A.** 3.17 µM

**Q.** What about the TGI [25] of the same compound?
**A.** 13.7 µM

**Q.** What about the GI50 [26] of the same compound?
**A.** 4.68 µM

**Q.** What about the TGI [26] of the same compound?
**A.** 11.8 µM

**Q.** What about the GI50 [27] of the same compound?
**A.** 4.78 µM

**Q.** What about the TGI [27] of the same compound?
**A.** 12.9 µM

**Q.** And the GI50 [28]?
**A.** 1.61 µM

**Q.** And the TGI [28]?
**A.** 6.96 µM

**Q.** What about the GI50 [29] of the same compound?
**A.** 2.2 µM

**Q.** What about the TGI [29] of the same compound?
**A.** 11.4 µM

**Q.** And the GI50 [30]?
**A.** 1.57 µM

**Q.** And the TGI [30]?
**A.** 6.22 µM

**Q.** What about the GI50 [31] of the same compound?
**A.** 6.65 µM

**Q.** And the TGI [31]?
**A.** 14.4 µM

**Q.** And the GI50 [32]?
**A.** 4.72 µM

**Q.** What about the TGI [32] of the same compound?
**A.** 12.7 µM

**Q.** And the GI50 [33]?
**A.** 2.23 µM

**Q.** What about the TGI [33] of the same compound?
**A.** 8.45 µM

**Q.** What about the GI50 [34] of the same compound?
**A.** 2.76 µM

**Q.** And the TGI [34]?
**A.** 9.34 µM

**Q.** And the GI50 [35]?
**A.** 4.69 µM

**Q.** What about the TGI [35] of the same compound?
**A.** 13.7 µM

**Q.** And the GI50 [36]?
**A.** 6.25 µM

**Q.** And the TGI [36]?
**A.** 13 µM

**Q.** What about the GI50 [37] of the same compound?
**A.** 6.72 µM

**Q.** What about the TGI [37] of the same compound?
**A.** 14.6 µM

**Q.** What about the GI50 [38] of the same compound?
**A.** 2.8 µM

**Q.** What about the TGI [38] of the same compound?
**A.** 11.3 µM

**Q.** What about the GI50 [39] of the same compound?
**A.** 3.29 µM

**Q.** What about the TGI [39] of the same compound?
**A.** 43.8 µM

**Q.** And the GI50 [40]?
**A.** 2.86 µM

**Q.** What about the TGI [40] of the same compound?
**A.** 10.5 µM

**Q.** What about the GI50 [41] of the same compound?
**A.** 3.99 µM

**Q.** And the TGI [41]?
**A.** 13.4 µM

**Q.** What about the GI50 [42] of the same compound?
**A.** 4.98 µM

**Q.** What about the TGI [42] of the same compound?
**A.** 12.5 µM

**Q.** What about the GI50 [43] of the same compound?
**A.** 6.11 µM

**Q.** And the TGI [43]?
**A.** 12.8 µM

**Q.** And the GI50 [44]?
**A.** 6.49 µM

**Q.** What about the TGI [44] of the same compound?
**A.** 13.8 µM

**Q.** What about the GI50 [45] of the same compound?
**A.** 7.51 µM

**Q.** What about the TGI [45] of the same compound?
**A.** 14.7 µM

**Q.** And the GI50 [46]?
**A.** 8.68 µM

**Q.** And the TGI [46]?
**A.** 16.8 µM

**Q.** And the GI50 [47]?
**A.** 7.69 µM

**Q.** And the TGI [47]?
**A.** 15.4 µM

**Q.** And the GI50 [48]?
**A.** 1.7 µM

**Q.** What about the TGI [48] of the same compound?
**A.** 6.32 µM

**Q.** What about the GI50 [49] of the same compound?
**A.** 5.97 µM

**Q.** And the TGI [49]?
**A.** 12.6 µM

**Q.** And the GI50 [50]?
**A.** 1.44 µM

**Q.** What about the TGI [50] of the same compound?
**A.** 8.12 µM

**Q.** What about the GI50 [51] of the same compound?
**A.** 2.01 µM

**Q.** What about the TGI [51] of the same compound?
**A.** 9.34 µM

**Q.** And the GI50 [52]?
**A.** 6.73 µM

**Q.** What about the TGI [52] of the same compound?
**A.** 14.8 µM

**Q.** What about the GI50 [53] of the same compound?
**A.** 5.51 µM

**Q.** What about the TGI [53] of the same compound?
**A.** 14.9 µM

**Q.** And the GI50 [54]?
**A.** 7.76 µM

**Q.** And the TGI [54]?
**A.** 16 µM

**Q.** And the GI50 [55]?
**A.** 3.46 µM

**Q.** What about the TGI [55] of the same compound?
**A.** 10.8 µM

**Q.** What about the GI50 [56] of the same compound?
**A.** 6.51 µM

**Q.** And the TGI [56]?
**A.** 13.5 µM

**Q.** What about the GI50 [57] of the same compound?
**A.** 5.71 µM

**Q.** And the TGI [57]?
**A.** 12.2 µM

**Q.** And the GI50 [58]?
**A.** 3.26 µM

**Q.** What about the TGI [58] of the same compound?
**A.** 10.9 µM
